“And” between values parts separate entries of the source, which are not always exact repeats. Equal values may be shown once. Read-outs that look alike come from different tables or passages of the source.
Key:
[1] = test system: CPPs; experiment: TEM and selected area electron diffraction of CPPs; design: species or system human
Method: To confirm the screening assay data, the hydrodynamic diameter of the CPPs was measured by dynamic light scattering (DLS). […] The CPP2 size deduced by DLS is slightly larger than the size derived from transmission electron microscopy (TEM) (Supplementary Figs. 4c and 7a), the latter being in line with previous work[52].
CPPs were prepared (vide supra) and TEM was performed similar to previous reports. […] […] Herein, cell culture grade 50 mM HEPES (1 M HEPES, 5630056, Thermo Fischer Scientific) was used for washing steps, to avoid high solvent and particle background in TEM. In brief, CPPs at 0.5 mg calcium/mL were drop-casted onto a copper grid, 300 mesh, covered with a continuous 8-nm-thick carbon film. The TEM data were collected with an FEI Tecnai F30 FEG TEM operated at 300 kV acceleration voltage and equipped with a Gatan 749 MultiScan CCD camera (Thermo Fischer Scientific). The bright-field images were collected at ×39,000 magnification using a 10-μm objective aperture. To assess the crystallinity of the sample selected area diffraction patterns were collected in parallel at a camera length of 300 mm. The radii of the rings in the diffraction pattern were measured (1/nm) and the associated interplanar d-spacings (nm) were calculated.

[2] = test system: primary human VSMCs; experiment: VSMC viability (MTS), compounds only; format: cell-based; settings: for VSMC viability (MTS), % of medium control: compound only
[3] = VSMC viability (MTS) in high-CaP medium; format: cell-based, human; settings: human, read-out: VSMC viability (MTS), % of medium control; for viability at 5 days, 10 µM: 10 µM in high-CaP medium; for viability at 5 days, 100 µM: 100 µM in high-CaP medium
[4] = test system: primary human VSMCs; experiment: VSMC viability (MTS) in high-CaP medium; format: cell-based
[5] = PK in healthy rats, i.v. bolus; format: in vivo, male Sprague-Dawley rats; settings: for Clobs / plasma concentration / Cmax / AUC(0-t) / MRT: 10 mg/kg i.v.; for half-life / Cmax / Vd / AUC(0-t) / MRT: Sprague-Dawley, rat, iv; for half-life: healthy male rats; for Cmax / Vd / AUC(0-t) / MRT: male; for Vd: read-out: apparent volume of distribution; for MRT: read-out: mean residence time (MRT) (converted)
Method: All PK studies in healthy animals were performed by the contract research organization Aphad S.r.l. (Milan, Italy). In all studies, compounds were administered as a salt, and the doses and plasma quantitation refer to the acid form. PK parameters listed in Supplementary Table 13 were derived from measured plasma concentrations applying noncompartmental analysis. Concentration data were extrapolated using the software Analyst™ 6.1 (Applied Biosystems, Foster City, CA, USA), the area under the plasma concentration vs. time curve (AUC) was calculated by linear trapezoidal rule using PK solver 2.0 add-in for Microsoft Excel 2007 (available for download in[83]), and a uniform weight was performed as a first general approach.
To study PK in healthy animals, male Sprague-Dawley rats (Harlan, Correzzana, Italy) were housed up to three per cage with free access to water and standard chow (pellets 12 mm, global diet 2018 certificate, Mucedola, Srl, Settimo Milanese, Italy), and submitted to a 12-h light/dark cycle. Animals were administered i.v. 10 mg/kg of (OEG2)2-IP4 in saline solution i.v. (30 s bolus, 5 mL/kg) and s.c. (5 mL/kg), respectively, in three animals per route and treatment. […] Plasma calcium concentration was determined in pre-dose samples and in t = 30 min samples of both acute and chronic treatments using the calcium colorimetric assay. Blood samples of 100 µL were drawn at several time points from the caudal vein, centrifuged at (3000 × g, 4 °C, 10 min) and stored at −80 °C until analysis by liquid chromatography–tandem mass spectrometry (LC-MS/MS).
The column used for (OEG2)2-IP4 was Kinetex C8 50 × 2.1 mm, 2.6 μm 100 A (Phenomenex, Basel, Switzerland), thermostated at 35 °C. […] Quantitation was carried out as total ion current on the sum of the MRM transitions. […] Samples were agitated 5 min on a […] orbital shaker and centrifuged (16,000 × g, 5 °C, 20 min). […] Samples were then subjected to LC-MS/MS. Rat PK samples were prepared for analysis in an analogous manner as done for spiked samples. The lower limit of quantification (LLOQ) and detection (LOD) in rat plasma for (OEG2)2-IP4 were 25 and 10 ng/mL, respectively. The upper limit of quantification (ULOQ) and detection was 5000 ng/mL.

[6] = 0.01 µM in high-CaP medium, replicates Fig. 3d

Compound: COCCOCCO[C@@H]1[C@@H](OP(=O)(O)O)[C@H](OCCOCCOC)[C@@H](OP(=O)(O)O)[C@@H](OP(=O)(O)O)[C@H]1OP(=O)(O)O [(OEG2)2-IP4, 4,6-Di-O-(methoxy-diethyleneglycol)-myo-inositol-1,2,3,5-tetrakis(phosphate)]
- CPP morphology (TEM) ([1]; 10 µM): matched those of CPP2s
- CPP crystallinity (selected area electron diffraction) ([1]; 100 µM, 14 h, 37 °C): largely amorphous
- CPP morphology (TEM) ([1]; 100 µM, 14 h, 37 °C): spherical-shaped CPP1s
- VSMC viability (MTS), % of medium control ([2]; 0.01 µM, replicates Fig. 3a): 106.7% and 112.6% and 127.9%
- VSMC viability (MTS), % of medium control ([2]; 0.1 µM): 105.4% and 101.1% and 125.7%
- VSMC viability (MTS), % of medium control ([2]; 1 µM): 106.9% and 113.8%
- VSMC viability (MTS), % of medium control ([2]; 10 µM): 100.7% and 120.7%
- VSMC viability (MTS), % of medium control ([2]; 100 µM): 101.2% and 99.46% and 122.9%
- changes in cell viability ([2]; 0.01–100 µM): did not lead to any changes in cell viability
- viability at 5 days, 0.01 µM [3, 6]: 65.9%
- viability at 5 days, 0.1 µM ([3]; 0.1 µM in high-CaP medium): 72.3%
- viability at 5 days, 10 µM [3]: 71.1%
- viability at 5 days, 100 µM [3]: 83.5%
- VSMC viability (MTS), % of medium control [4, 6]: 53.4% and 66.46%
- VSMC viability (MTS), % of medium control ([4]; 0.1 µM in high-CaP medium): 53.2% and 65.81%
- VSMC viability (MTS), % of medium control ([4]; 1 µM in high-CaP medium): 67.8% and 94.42% and 93.48%
- VSMC viability (MTS), % of medium control ([4]; 10 µM in high-CaP medium): 90.2% and 89.04%
- VSMC viability (MTS), % of medium control ([4]; 100 µM in high-CaP medium): 91.5% and 93.79%
- cell viability vs high-CaP medium control ([4]; 0.01 and 0.1 µM): slightly decreased
- Clobs [5]: 7.6 ± 0.5 mL/min/kg
- fold increase in plasmatic t1/2 vs IP6 ([5]; 10 mg/kg i.v. bolus): ~10 fold
- plasma concentration ([5]; 5 min, individual rats Fig. 4a, unit not printed (µM per Fig. 4b), listed as INS-3001): 41.12 and 47.02 and 66.21
- plasma concentration ([5]; 15 min, unit not given, listed as INS-3001): 26.41 and 24.63 and 34.38
- plasma concentration ([5]; 30 min, unit not given, listed as INS-3001): 14.11 and 13.26 and 19.44
- plasma concentration ([5]; 60 min, unit not given, listed as INS-3001): 5.04 and 6 and 6.96
- plasma concentration ([5]; 90 min, unit not given, listed as INS-3001): 2.07 and 1.64 and 1.72
- plasma concentration ([5]; 240 min, unit not given, listed as INS-3001): 0.15 and 0.13
- plasma concentration ([5]; 360 min, unit not given, listed as INS-3001): 0.06 and 0.04 and 0.08
- half-life ([5]; in vivo, 10 mg/kg i.v. bolus): 78 ± 32 min
- Cmax ([5]; in vivo): 52 ± 13 µM
- Vd ([5]; in vivo, 10 mg/kg i.v. bolus): 0.234 ± 0.032 L/kg
- AUC(0-t) ([5]; in vivo, t = 360 min): 26.1 µM·h
- MRT ([5]; in vivo): 30 min

Compound: O=P(O)(O)O[C@H]1[C@H](OP(=O)(O)O)[C@@H](OP(=O)(O)O)[C@H](OP(=O)(O)O)[C@@H](OP(=O)(O)O)[C@H]1OP(=O)(O)O [IP6, myo-Inositol hexakisphosphate]
- CPP morphology (TEM) ([1]; 100 µM, 14 h, 37 °C): spindle-shaped CPP2s
- VSMC viability (MTS), % of medium control ([2]; 0.01 µM, replicates Fig. 3a): 107.6% and 117.7% and 127.9%
- VSMC viability (MTS), % of medium control ([2]; 0.1 µM): 101.2% and 116.5% and 123.9%
- VSMC viability (MTS), % of medium control ([2]; 1 µM): 102.4% and 110.2% and 123.7%
- VSMC viability (MTS), % of medium control ([2]; 10 µM): 107.1% and 105.1% and 128.6%
- VSMC viability (MTS), % of medium control ([2]; 100 µM): 108.9% and 116.9% and 143.6%
- viability at 5 days, 1 µM ([3]; primary human VSMCs, 1 µM in high-CaP medium): 68.8%
- viability at 5 days, 10 µM ([3]; primary human VSMCs): 69.9%
- viability at 5 days, 100 µM ([3]; primary human VSMCs): 78.7%
- VSMC viability (MTS), % of medium control [4, 6]: 67.31% and 30.78% and 56.19%
- VSMC viability (MTS), % of medium control ([4]; 0.1 µM in high-CaP medium): 69.48% and 36.65% and 58.54%
- VSMC viability (MTS), % of medium control ([4]; 1 µM in high-CaP medium): 54.02% and 63.76%
- VSMC viability (MTS), % of medium control ([4]; 10 µM in high-CaP medium): 84.96% and 80.54%
- VSMC viability (MTS), % of medium control ([4]; 100 µM in high-CaP medium): 97.34% and 86.99%
- Clobs [5]: 68.5 ± 21.2 mL/min/kg
- plasma concentration ([5]; 5 min, individual rats Fig. 4a, unit not printed (µM per Fig. 4b)): 13.9 and 17.5 and 6.9 and 6.5 and 5.5 and 5.1
- half-life ([5]; plasma, 10 mg/kg i.v. bolus): 8 ± 2 min
- Cmax ([5]; plasma): 13 ± 6 µM
- Vd ([5]; plasma, 10 mg/kg i.v. bolus): 0.958 ± 0.405 L/kg
- AUC(0-t) ([5]; plasma, t = 30 min): 3.77 µM·h
- MRT ([5]; plasma): 14 min

Source: paper PMC7002685, “Inhibition of vascular calcification by inositol phosphates derivatized with ethylene glycol oligomers” (Nature Communications, 2020)
